According to patent publication US8940724B2, “Quinoline derivitives and their uses” (Amgen Inc., priority 2009, dated 2015):
pKi: −log10 of the molar value.

Assays:
[1] = tested on: mouse model of rheumatoid arthritis; conditions: in vivo; cited from earlier work
[2] = tested on: model of systemic lupus erythematosis; conditions: in vivo; cited from earlier work
p110δ = target: T1, p110δ (Homo sapiens, UniProt O00329); conditions: cited from earlier work
T1 sequence (O00329 1-1044): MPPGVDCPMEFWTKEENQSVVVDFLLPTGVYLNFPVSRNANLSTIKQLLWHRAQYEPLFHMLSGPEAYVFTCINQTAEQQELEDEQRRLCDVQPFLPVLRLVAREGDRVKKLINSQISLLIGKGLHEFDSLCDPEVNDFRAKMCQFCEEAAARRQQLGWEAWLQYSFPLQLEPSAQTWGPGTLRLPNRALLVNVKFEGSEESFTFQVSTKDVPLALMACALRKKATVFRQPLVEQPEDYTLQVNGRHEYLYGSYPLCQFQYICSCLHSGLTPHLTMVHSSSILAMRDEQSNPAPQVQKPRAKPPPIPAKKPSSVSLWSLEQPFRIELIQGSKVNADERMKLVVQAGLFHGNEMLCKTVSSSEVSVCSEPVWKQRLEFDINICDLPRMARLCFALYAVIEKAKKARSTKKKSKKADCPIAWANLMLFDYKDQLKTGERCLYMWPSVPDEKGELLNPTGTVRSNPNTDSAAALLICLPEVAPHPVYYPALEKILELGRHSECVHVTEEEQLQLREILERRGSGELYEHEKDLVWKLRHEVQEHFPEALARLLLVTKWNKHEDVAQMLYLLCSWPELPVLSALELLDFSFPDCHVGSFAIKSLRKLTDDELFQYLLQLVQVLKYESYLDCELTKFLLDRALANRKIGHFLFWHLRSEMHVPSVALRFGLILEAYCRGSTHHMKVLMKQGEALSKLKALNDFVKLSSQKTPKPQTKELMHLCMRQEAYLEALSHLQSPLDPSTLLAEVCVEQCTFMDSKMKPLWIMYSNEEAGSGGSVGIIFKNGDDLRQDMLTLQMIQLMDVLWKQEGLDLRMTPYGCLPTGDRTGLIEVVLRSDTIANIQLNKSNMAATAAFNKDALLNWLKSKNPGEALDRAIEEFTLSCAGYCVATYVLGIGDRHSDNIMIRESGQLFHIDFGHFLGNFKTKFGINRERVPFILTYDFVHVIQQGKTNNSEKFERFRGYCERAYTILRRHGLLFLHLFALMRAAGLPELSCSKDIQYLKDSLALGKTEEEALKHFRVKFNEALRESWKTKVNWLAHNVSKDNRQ

protein kinases = conditions: cited from earlier work
[3] = tested on: ovalbumin-induced airway inflammation; conditions: cited from earlier work
PI3Kδ = target: T2, PI3Kδ (Homo sapiens, UniProt O00329); experiment: PI3Kδ Alphascreen assay; format: biochemical
T2 construct: Full length p110 subunits of PI3k α, β and δ, N-terminally labeled with polyHis tag; polyHis (N); made in house; host or cells: Sf9 insect cells (baculovirus)
T2 sequence (P27986 whole entry partner, one chain of several): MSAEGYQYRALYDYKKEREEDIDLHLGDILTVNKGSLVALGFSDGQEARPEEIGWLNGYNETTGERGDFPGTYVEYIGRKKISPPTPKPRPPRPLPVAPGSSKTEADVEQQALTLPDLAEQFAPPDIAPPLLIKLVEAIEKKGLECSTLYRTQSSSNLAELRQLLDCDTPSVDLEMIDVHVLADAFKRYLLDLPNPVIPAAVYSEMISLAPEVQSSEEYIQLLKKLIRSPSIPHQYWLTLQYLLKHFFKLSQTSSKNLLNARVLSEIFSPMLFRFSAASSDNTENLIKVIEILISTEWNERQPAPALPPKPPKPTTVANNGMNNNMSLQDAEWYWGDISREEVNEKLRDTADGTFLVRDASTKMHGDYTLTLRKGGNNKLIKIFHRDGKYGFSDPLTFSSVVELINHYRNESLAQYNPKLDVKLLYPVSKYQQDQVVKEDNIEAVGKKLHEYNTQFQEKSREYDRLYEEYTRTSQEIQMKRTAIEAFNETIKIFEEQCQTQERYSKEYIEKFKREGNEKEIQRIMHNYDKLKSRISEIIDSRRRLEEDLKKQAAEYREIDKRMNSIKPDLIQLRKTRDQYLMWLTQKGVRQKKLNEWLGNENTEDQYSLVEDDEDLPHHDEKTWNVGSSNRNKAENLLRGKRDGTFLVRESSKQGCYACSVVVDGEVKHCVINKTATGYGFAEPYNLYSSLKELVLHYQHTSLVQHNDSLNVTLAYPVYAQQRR

SMILES | pKi (PI3Kδ) | other results
O=C1NC(=O)/C(=C\c2ccc3nccnc3c2)S1 [AS 605240] |  | efficacy in a mouse model of rheumatoid arthritis [1]: efficacious; onset of disease in a model of systemic lupus erythematosis [2]: delay onset of disease
Cc1ccccc1-n1c(Cn2cnc3c(N)ncnc32)nc2cccc(C)c2c1=O [IC87114] |  | inhibits p110δ (p110δ): high nanomolar range (triple digit); activity against any protein kinases tested (protein kinases): no activity; inflammation and disease in a murine model of asthma [3]: significantly ameliorate inflammation and disease
Cc1c(N2CCN(C(=O)OC(C)(C)C)CC2)nc2cc(F)cc(F)c2c1Nc1cc(N2CCOCC2)cnc1N1CCOCC1 [tert-butyl 4-(4-((2,5-di-4-morpholinyl-3-pyridinyl)amino)-5,7-difluoro-3-methyl-2-quinolinyl)-1-piperazinecarboxylate] | 7.47 | 

Continued, in another order:

pKi (PI3Kδ) | SMILES | other results
6.45 | Cc1c(N2CCN(C(=O)OC(C)(C)C)CC2)nc2cc(F)cc(F)c2c1Nc1cncc(N2CCOCC2)c1 [tert-butyl 4-(5,7-difluoro-3-methyl-4-((5-(4-morpholinyl)-3-pyridinyl)amino)-2-quinolinyl)-1-piperazinecarboxylate] | 
6.08 | Cc1c(N2CCN(C(=O)OC(C)(C)C)[C@H](C)C2)nc2cc(F)cc(F)c2c1Nc1cncc(N2CCOCC2)c1 [tert-butyl (2R)-4-(5,7-difluoro-3-methyl-4-((5-(4-morpholinyl)-3-pyridinyl)amino)-2-quinolinyl)-2-methyl-1-piperazinecarboxylate] | 
6.95 | Cc1c(N2CCN(C(=O)OC(C)(C)C)[C@@H](C)C2)nc2cc(F)cc(F)c2c1Nc1cncc(N2CCOCC2)c1 [tert-butyl (2S)-4-(5,7-difluoro-3-methyl-4-((5-(4-morpholinyl)-3-pyridinyl)amino)-2-quinolinyl)-2-methyl-1-piperazinecarboxylate] | 
6.45 | Cc1c(N2CCN(C(=O)OC(C)(C)C)C[C@@H]2C)nc2cc(F)cc(F)c2c1Nc1cncc(N2CCOCC2)c1 [tert-butyl (3S)-4-(5,7-difluoro-3-methyl-4-((5-(4-morpholinyl)-3-pyridinyl)amino)-2-quinolinyl)-3-methyl-1-piperazinecarboxylate] | 
